target: T1, Human complement C1s enzyme (Homo sapiens, UniProt P09871); assay: Human C1s enzyme assay; format: biochemical; settings: human complement C1s enzyme 1.16 nM, substrate Z-L-Lys-SBzl, A405; read-out: IC50 (Stars)
T1 construct: purified from human serum, Complement Technology, Inc; purchased Complement Technology, Inc; host or cells: human serum (plasma-derived native protein)
T1 sequence (P09871 438-688 limits assumed): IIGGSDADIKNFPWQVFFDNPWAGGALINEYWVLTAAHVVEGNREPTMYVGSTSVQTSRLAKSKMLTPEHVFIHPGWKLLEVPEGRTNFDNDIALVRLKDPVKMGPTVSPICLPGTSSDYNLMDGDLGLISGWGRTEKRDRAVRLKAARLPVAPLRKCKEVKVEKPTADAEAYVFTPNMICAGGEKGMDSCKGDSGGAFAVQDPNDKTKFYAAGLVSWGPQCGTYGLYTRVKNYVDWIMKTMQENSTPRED
T1 sequence (P09871 16-437 partner limits assumed): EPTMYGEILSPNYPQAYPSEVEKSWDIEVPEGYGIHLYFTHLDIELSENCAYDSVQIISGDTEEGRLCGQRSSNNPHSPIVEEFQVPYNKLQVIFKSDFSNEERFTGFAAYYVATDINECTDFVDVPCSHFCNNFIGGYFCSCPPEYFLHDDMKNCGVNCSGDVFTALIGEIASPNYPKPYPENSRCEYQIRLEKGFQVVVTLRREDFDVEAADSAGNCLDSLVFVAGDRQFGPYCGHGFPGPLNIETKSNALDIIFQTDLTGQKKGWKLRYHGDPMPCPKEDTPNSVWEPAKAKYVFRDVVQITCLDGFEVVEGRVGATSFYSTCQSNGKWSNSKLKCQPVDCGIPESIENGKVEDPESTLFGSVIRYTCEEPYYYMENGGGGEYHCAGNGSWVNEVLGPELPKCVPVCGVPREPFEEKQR
Method in brief: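 Serum-purified human C1s (1.16 nM final) preincubated 5 min at room temperature with compound in 50 mM Tris, 1 M NaCl, pH 7.5. Z-L-Lys-SBzl and DTNB added at 100 μM each; A405 recorded every 30 s. IC50 from nonlinear regression of reaction rates versus compound concentration.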

Row | SMILES | IC50 [nM]
1 | C[C@H](Nc1ncc(-c2ccccc2F)n(CC(=O)NCc2cc3cnccc3[nH]2)c1=O)c1ccc2oc3ccccc3c2c1 [Compound 314, (S)—N-((1H-pyrrolo[3,2-c]pyridine-2-yl)methyl)-2-(3-((1-(dibenzo[b,d]furan-2-yl)ethyl)amino)-6-(2-fluorophenyl)-2-oxopyrazin-1(2H)-yl)acetamide] | < 100
2 | O=C(Cn1c(-c2ccccc2)ncc(NC(=O)c2ccc(-c3ccccc3)c(F)c2)c1=O)NCc1cc2cnccc2[nH]1 [Compound 240, N-(1-(2-(((1H-pyrrolo[3,2-c]pyridin-2-yl)methyl)amino)-2-oxoethyl)-6-oxo-2-phenyl-1,6-dihydropyrimidin-5-yl)-2-fluoro-[1,1′-biphenyl]-4-carboxamide] | < 100
3 | O=C(Cn1c(-c2ccccc2)ncc(NC(=O)c2ccc3c(c2)C(F)(F)c2ccccc2-3)c1=O)NCc1cc2cnccc2[nH]1 [Compound 204, N-(1-(2-(((1H-pyrrolo[3,2-c]pyridin-2-yl)methyl)amino)-2-oxoethyl)-6-oxo-2-phenyl-1,6-dihydropyrimidin-5-yl)-9,9-difluoro-9H-fluorene-2-carbox-amide] | < 100
4 | O=C(Cn1c(C2CCCC2)ncc(NCc2ccc3oc4ccccc4c3c2)c1=O)NCc1cc2cnccc2[nH]1 [Compound 253, N-((1H-pyrrolo[3,2-c]pyridine-2-yl)methyl)-2-(2-cyclopentyl-5-((dibenzo[b,d]furan-2-ylmethyl)amino)-6-oxopyrimidin-1(6H)-yl)acetamide] | < 100
5 | O=C(Cn1c(-c2ccccc2)ncc(NCCCc2ccc(OC3CS(=O)(=O)C3)cc2)c1=O)NCc1cc2cnccc2[nH]1 [Compound 193, N-((1H-pyrrolo[3,2-c]pyridine-2-yl)methyl)-2-(5-((3-(4-((1,1-dioxidothietan-3-yl)oxy)phenyl)propyl)amino)-6-oxo-2-phenylpyrimidin-1(6H)-yl) acetamide] | < 100
6 | O=C(Cn1c(-c2ccccc2)ncc(NCCCC(=O)c2ccc(Oc3ccccc3)cc2)c1=O)NCc1cc2cnccc2[nH]1 [Compound 88, N-((1H-pyrrolo[3,2-c]pyridin-2-yl)methyl)-2-(6-oxo-5-((4-oxo-4-(4-phenoxyphenyl)but-yl)amino)-2-phenylpyrimidin-1(6H)-yl)acetamide] | < 100
7 | O=C(Cn1c(-c2ccccc2)ncc(NCCNC(=O)c2ccc3c(c2)-c2ccccc2C3(F)F)c1=O)NCc1cc2cnccc2[nH]1 [Compound 36, N-(2-((1-(2-(((1H-pyrrolo[3,2-c]pyridin-2-yl)methyl)amino)-2-oxoethyl)-6-oxo-2-phenyl-1,6-dihydropyrimidin-5-yl)-amino)ethyl)-9,9-difluoro-9H-fluorene-3-carboxamide] | < 100
8 | O=C(Cn1c(-c2cccs2)ncc(NCc2ccc3oc4ccccc4c3c2)c1=O)NCc1cc2cnccc2[nH]1 [Compound 251, N-((1H-pyrrolo[3,2-c]pyridin-2-yl)methyl)-2-(5-((dibenzo [b,d]furan-2-ylmethyl)amino)-6-oxo-2-(thiophen-2-yl)pyrimi-din-1(6H)-yl)acetamide] | < 100
9 | COC[C@H]1CN(c2ncc(N[C@H](C)c3ccc4oc5ccccc5c4c3)c(=O)n2CC(=O)NCc2cc3cnccc3[nH]2)CCO1 [Compound 469, N-((1H-pyrrolo[3,2-c]pyridin-2-yl)methyl)-2-(5-(((R)-1-(dibenzo[b,d]furan-2-yl)ethyl)-amino)-2-((R)-2-(methoxy-methyl)morpholino)-6-oxo-pyrimidin-1(6H)-yl)acetamide] | 100 to 1000
10 | C[C@H](Nc1cnc(-c2ccccc2)n(CC(=O)NCc2cc3cnccc3[nH]2)c1=O)c1ccc(-c2ccccc2)cc1 [Compound 276, (S)-N-((1H-pyrrolo[3,2-c]pyr-idin-2-yl)methyl)-2-(5-((1-([1,1′-biphenyl]-4-yl)ethyl)-amino)-6-oxo-2-phenylpyrimi-din-1(6H)-yl)acetamide] | < 100
11 | O=C(Cn1c(-c2ccccc2F)ncc(N[C@H](CO)c2ccc3oc4ccccc4c3c2)c1=O)NCc1cc2cnccc2[nH]1 [Compound 433, (S)—N-((1H-Pyrrolo[3,2-c]pyridine-2-yl)methyl)-2-(5-((1-(dibenzo[b,d]furan-2-yl)-2-hydroxyethyl)amino)-2-(2-fluorophenyl)-6-oxopyrimidin-1(6H)-yl)acetamide] | < 100
12 | CC(C)[C@@H](Nc1cnc(-c2ccccc2F)n(CC(=O)NCc2cc3cnccc3[nH]2)c1=O)c1ccc2oc3ccccc3c2c1 [Compound 332, (R)—N-((1H-pyrrolo[3,2-c]pyridine-2-yl)methyl)-2-(5-((1-(dibenzo[b,d]furan-2-yl)-2-methylpropyl)amino)-2-(2-fluorophenyl)-6-oxopyrimidin-1(6H)-yl)acetamide] | > 1000

The remaining lines, values ahead:

Row | IC50 [nM] | SMILES
13 | > 1000 | O=C(CN1C(=O)[C@H](NCCCc2ccccc2)CC[C@H]1c1ccccc1)NCc1cc2cnccc2[nH]1 [Compound 490, N-((1H-pyrrolo[3,2-c]pyridin-2-yl)methyl)-2-((3R,6S)-2-oxo-6-phenyl-3-((3-phenylpropyl)-amino)piperidin-1-yl)acetamide]
14 | < 100 | O=C(Cn1c(-c2ccccc2)ncc(NC(=O)CCC(=O)c2ccc(Oc3ccccc3)cc2)c1=O)NCc1cc2cnccc2[nH]1 [Compound 23, N-(1-(2-(((1H-pyrrolo[3,2-c]pyridin-2-yl)methyl)amino)-2-oxoethyl)-6-oxo-2-phenyl-1,6-dihydropyrimidin-5-yl)-4-oxo-4-(4-phenoxyphenyl)butanamide]
15 | < 100 | O=C(Cn1c(-c2ccccc2)ncc(NC(=O)c2ccc3c(c2)-c2ccccc2C3(F)F)c1=O)NCc1cc2cnccc2[nH]1 [Compound 78, N-(1-(2-(((1H-pyrrolo[3,2-c]pyridin-2-yl)methyl)amino)-2-oxoethyl)-6-oxo-2-phenyl-1,6-dihydropyrimidin-5-yl)-9,9-difluoro-9H-fluorene-3-carbox-amide]
16 | < 100 | O=C(Cn1c(-c2ccccc2)ncc(NCc2ccc3c(c2)-c2ccccc2C3(F)F)c1=O)NCc1cc2cnccc2[nH]1 [Compound 22, N-((1H-pyrrolo[3,2-c]pyridin-2-yl)methyl)-2-(5-(((9,9-difluoro-9H-fluoren-3-yl)meth-yl)amino)-6-oxo-2-phenyl-pyrimidin-1(6H)-yl)acetamide]
17 | 100 to 1000 | C[C@@H](Nc1cncn(CC(=O)NCc2cc3cnccc3[nH]2)c1=O)c1ccc2c(c1)-c1ccccc1C2(F)F [Compound 346, (R)-N-((1H-pyrrolo[3,2-c]pyridin-2-yl)methyl)-2-(5-((1-(9,9-difluoro-9H-fluoren-3-yl)-ethyl)amino)-6-oxopyrimidin-1(6H)-yl)acetamide]
18 | < 100 | O=C(Cn1c(-c2ccccc2)ncc(NC(=O)c2ccc(Oc3ccccc3)cc2)c1=O)NCc1cc2cnccc2[nH]1 [Compound 8, N-(1-(2-(((1H-pyrrolo[3,2-c]pyridin-2-yl)methyl)amino)-2-oxoethyl)-6-oxo-2-phenyl-1,6-dihydropyrimidin-5-yl)-4-phenoxybenzamide]
19 | < 100 | Cc1nc(-c2ccccc2)n(CC(=O)NCc2cc3cnccc3[nH]2)c(=O)c1N[C@H](C)c1ccc2oc3ccccc3c2c1 [Compound 336, (R)—N-((1H-pyrrolo[3,2-c]pyridin-2-yl)methyl)-2-(5-((1-(dibenzo[b,d]furan-2-yl)ethyl)amino)-4-methyl-6-oxo-2-phenylpyrimidin-1(6H)-yl)acetamide]
20 | < 100 | COc1ccc(-c2ncc(N[C@H](C)c3ccc4oc5ccccc5c4c3)c(=O)n2CC(=O)NCc2cc3cnccc3[nH]2)cc1 [Compound 248, (R)-N-((1H-pyrrolo[3,2-c]pyr-idin-2-yl)methyl)-2-(5-((1-(dibenzo[b,d]furan-2-yl)ethyl)-amino)-2-(4-methoxyphenyl)-6-oxopyrimidin-1(6H)-yl)-acetamide]
21 | > 1000 | O=C(Cn1c(-c2ccccc2)ncc(-c2nc3ccccc3[nH]2)c1=O)NCc1cc2cnccc2[nH]1 [Compound 82, 2-(5-(1H-benzo[d]pyridine-2-yl)-6-oxo-2-phenylpyrimidin-1(6H)-yl)-N-((1H-pyrrolo[3,2-c]pyridine-2-yl)methyl)acetamide]
22 | < 100 | O=C(Cn1c(-c2ccc(S(F)(F)(F)(F)F)cc2)ncc(NCc2ccc3oc4ccccc4c3c2)c1=O)NCc1cc2cnccc2[nH]1 [Compound 297, N-((1H-pyrrolo[3,2-c]pyridin-2-yl)methyl)-2-(5-((dibenzo [b,d]furan-2-ylmethyl)amino)-6-oxo-2-(4-(pentafluoro-lambda6-sulfaneyl)phenyl)pyr-imidin-1(6H)-yl)acetamide]
23 | 100 to 1000 | Cc1ncc(-c2ncc(N[C@H](C)c3ccc4oc5ccccc5c4c3)c(=O)n2CC(=O)NCc2cc3cnccc3[nH]2)cn1 [Compound 391, (R)-N-((1H-pyrrolo[3,2-c]pyridin-2-yl)methyl)-2-(5-((1-(dibenzo[b,d]furan-2-yl)ethyl)-amino)-2′-methyl-6-oxo-[2,5′-bipyrimidin]-1(6H)-yl)acet-amide]
